Each structure is given as a SMILES string.

One test addresses T1, NTCP (Homo sapiens, UniProt Q14973).
T1 sequence (Q14973 1-349): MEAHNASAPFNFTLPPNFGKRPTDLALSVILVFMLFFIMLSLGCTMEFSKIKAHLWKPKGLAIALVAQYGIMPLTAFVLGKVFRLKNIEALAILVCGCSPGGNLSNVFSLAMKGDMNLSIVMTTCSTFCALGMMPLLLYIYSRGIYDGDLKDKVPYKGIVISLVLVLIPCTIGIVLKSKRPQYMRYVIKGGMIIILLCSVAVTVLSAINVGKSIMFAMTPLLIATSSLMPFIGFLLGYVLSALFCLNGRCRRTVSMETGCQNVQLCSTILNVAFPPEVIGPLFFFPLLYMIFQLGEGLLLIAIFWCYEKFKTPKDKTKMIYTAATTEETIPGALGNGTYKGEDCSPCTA
Nature of the test: [3H]-TCA uptake assay (NTCP inhibition). The settings on record: IC50, given as a range, marked * (asterisk not explained). It is filed as cell-based. The essentials: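 Read-out is liquid scintillation counting of Triton X-100 lysates after 15 min, 37° C uptake of 1 μM [3H]-taurocholate in Na+ Ringer's buffer (145 mM Na). Beforehand, PTH and HepG2-NTCP cells had 24 h in PMM for NTCP induction and 2 h of compound or DMSO treatment.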
Turning to `CCC1NC(=O)C(C2OC(OC(C)c3ccc(Cl)cc3)CC2C)N(C)C(=O)C(C(C)C)N(C)C(=O)C(CC(C)C)N(C)C(=O)C(CC(C)C)N(C)C(=O)C(C)NC(=O)C(C)NC(=O)C(CC(C)C)N(C)C(=O)C(C(C)C)NC(=O)C(CC(C)C)N(C)C(=O)CN(C)C1=O` (stereo not shown) [Compound 102], the IC50 (in general, the concentration that gives 50% inhibition) lay within 1 to 100 µM.

Turning to `CCC1NC(=O)C(C2OC(Oc3cccc(OCc4cccnc4)c3)CC2C)N(C)C(=O)C(C(C)C)N(C)C(=O)C(CC(C)C)N(C)C(=O)C(CC(C)C)N(C)C(=O)C(C)NC(=O)C(C)NC(=O)C(CC(C)C)N(C)C(=O)C(C(C)C)NC(=O)C(CC(C)C)N(C)C(=O)CN(C)C1=O` (stereo not shown) [53A + B(1:1.5)-o], the IC50 was 1 to 100 µM.

With `CCCOc1cc(OC2CC(C)C(C3C(=O)NC(CC)C(=O)N(C)CC(=O)N(C)C(CC(C)C)C(=O)NC(C(C)C)C(=O)N(C)C(CC(C)C)C(=O)NC(C)C(=O)NC(C)C(=O)N(C)C(CC(C)C)C(=O)N(C)C(CC(C)C)C(=O)N(C)C(C(C)C)C(=O)N3C)O2)ccc1Cl` (stereo not shown) [Compound 42A-o], the IC50 was 1 to 100 µM.

Take `CCC1NC(=O)C(C2OC(Oc3ccc(N(C)C)cc3)CC2C)N(C)C(=O)C(C(C)C)N(C)C(=O)C(CC(C)C)N(C)C(=O)C(CC(C)C)N(C)C(=O)C(C)NC(=O)C(C)NC(=O)C(CC(C)C)N(C)C(=O)C(C(C)C)NC(=O)C(CC(C)C)N(C)C(=O)CN(C)C1=O` (stereo not shown) [Compound 51A-o]: the IC50 was in the range of 1 to 100 µM.

`CCC1NC(=O)C(C2OC(SC(C)c3ccc(Cl)cc3)CC2C)N(C)C(=O)C(C(C)C)N(C)C(=O)C(CC(C)C)N(C)C(=O)C(CC(C)C)N(C)C(=O)C(C)NC(=O)C(C)NC(=O)C(CC(C)C)N(C)C(=O)C(C(C)C)NC(=O)C(CC(C)C)N(C)C(=O)CN(C)C1=O` (stereo not shown) [Compound 102-s]: the IC50 fell in the range of 1 to 100 µM.

The test is the same for the next values; noted with them: given as a range, marked * (asterisk not explained).
`CCC1NC(=O)C(C2OC(Oc3cc(OC)cc(OCc4ccc(F)cc4)c3)CC2C)N(C)C(=O)C(C(C)C)N(C)C(=O)C(CC(C)C)N(C)C(=O)C(CC(C)C)N(C)C(=O)C(C)NC(=O)C(C)NC(=O)C(CC(C)C)N(C)C(=O)C(C(C)C)NC(=O)C(CC(C)C)N(C)C(=O)CN(C)C1=O` (stereo not shown) [Compound 60A-o] returned an IC50 of 1 to 100 µM.

In turn, `CCC1NC(=O)C(C2OC(Oc3cc(OC)cc(OCC4CCOCC4)c3)CC2C)N(C)C(=O)C(C(C)C)N(C)C(=O)C(CC(C)C)N(C)C(=O)C(CC(C)C)N(C)C(=O)C(C)NC(=O)C(C)NC(=O)C(CC(C)C)N(C)C(=O)C(C(C)C)NC(=O)C(CC(C)C)N(C)C(=O)CN(C)C1=O` (stereo not shown) [Compound 66-o] showed an IC50 of 1 to 100 µM.

Turning to `CCC1NC(=O)C(C2OC(Oc3cc(OCCOC)cc(OCC4CCOCC4)c3)CC2C)N(C)C(=O)C(C(C)C)N(C)C(=O)C(CC(C)C)N(C)C(=O)C(CC(C)C)N(C)C(=O)C(C)NC(=O)C(C)NC(=O)C(CC(C)C)N(C)C(=O)C(C(C)C)NC(=O)C(CC(C)C)N(C)C(=O)CN(C)C1=O` (stereo not shown) [Compound 55-o], the IC50 was in the range of 1 to 100 µM.

Still in this test, the particulars now being: given as a range; assay not given.
For the compound `CCC1NC(=O)C(C2OC(Sc3cccc(OCc4ccc(F)c(Cl)c4)c3)CC2C)N(C)C(=O)C(C(C)C)N(C)C(=O)C(CC(C)C)N(C)C(=O)C(CC(C)C)N(C)C(=O)C(C)NC(=O)C(C)NC(=O)C(CC(C)C)N(C)C(=O)C(C(C)C)NC(=O)C(CC(C)C)N(C)C(=O)CN(C)C1=O` [Compound 22A, [2-((2R,3R)-5-(3-(3-chloro-4-fluorobenzyloxy)phenylthio)-3-methyltetrahydrofuran-2-yl)-2-(methylamino)acetic acid]^1-cyclosporin A], the IC50 is 0.001 to 1 µM.

For `CCC1NC(=O)C(C2OC(OCc3ccccc3OC)CC2C)N(C)C(=O)C(C(C)C)N(C)C(=O)C(CC(C)C)N(C)C(=O)C(CC(C)C)N(C)C(=O)C(C)NC(=O)C(C)NC(=O)C(CC(C)C)N(C)C(=O)C(C(C)C)NC(=O)C(CC(C)C)N(C)C(=O)CN(C)C1=O` (single isomer, unassigned) [Compound 82A], the IC50 lay within 0.001 to 1 µM.

The values are drawn from patent US10961231B2, “NTCP inhibitors” (National Institute of Biological Sciences, Beijing, priority 2018, dated 2021).
